Measured values reported in patent US11931335B2, “Enhancing autophagy or increasing longevity by administration of urolithins or precursors thereof” (Amazentis SA, priority 2012, dated 2024).
“Also recorded” adds a separate entry of the source.

Key:
[1] = tested on: sir-2.1(ok434) mutant C. elegans; assay: Lifespan assay, sir-2.1 mutant C. elegans; format: in vivo
Protocol: Lifespan assays were performed with (A) wild-type (N2), (B) sir-2.1(ok434) mutant, (C) aak-2(ok524), (D) daf-16(mu86), (E) eat-2(ad465) and (F) daf-2(e1370) mutant strains of C. elegans maintained during their full life on plates supplemented with either 50 μM of urolithin A or with a control treatment and seeded with OP50 bacteria. Control plates without urolithin A contained an equivalent concentration of DMSO. Worm lifespan assays were performed at 20° C.
sir-2.1: sir-2.1 encodes the mammalian homolog of the NAD-dependent deacetylase SIRT1 in C. elegans. SIR-2.1/SIRT1 activity is mediated by NAD^+ level and is well described to be involved in longevity regulation in yeast, C. elegans, and Drosophila in response to caloric restriction.

[2] = tested on: C. elegans fed bec-1 RNAi; assay: Lifespan with RNAi against bec-1; format: in vivo; settings: 50 μM; vs empty vector; FIG. 10C
Protocol: Lifespan tests were performed as described. Mouchiroud L et al. (2011) Aging Cell 10:39-54. Briefly, worms were observed using a Nikon SMZ1500 stereomicroscope (Nikon, Melville, NY, USA). Briefly, 10 L4 worms were transferred on plates containing NGM medium with vehicle (DMSO 0.1%, final concentration) or urolithin A dissolved in DMSO (final concentration 50 μM) and seeded with E. coli RNAi clones as indicated. After 3 days (corresponding to day 0), newly developed 60-100 L4 worms were used per condition, scored and transferred to fresh plates every 3 days starting from day 1 (young adult worms). All lifespan experiments were performed at 20° C.
Survival analyses were performed using the Kaplan Meier method and the significance of differences between survival curves calculated using the log rank test. Differences between two groups were assessed using two-tailed t-tests. Analysis of variance, assessed by Bonferroni's multiple comparison test, was used when comparing more than two groups. The statistical software used was GraphPad Prism 5 (GraphPad Software, Inc.) and all p-values <0.05 were considered significant.
Gene silencing was carried out as previously described by using the RNA interference (RNAi) process. Mouchiroud L et al. (2011) Aging Cell 10:39-54. In C. elegans, RNAi is made by feeding. […]

ModeK cells = assay: Autophagy western blot in ModeK cells; format: cell-based, mouse; settings: 10 μM, 20 μM and 50 NM, eight hours
Protocol: The ability of urolithins to induce autophagy in mammalian cells was also examined. ModeK cells derived from intestine, were cultured in RPMI 1640 medium including 4.5 g/L glucose, 10% fetal calf serum, 1 mM Sodium Pyruvate, 10 mM HEPES, 0.1 mM NEAA, 2-Mercaptoethanol Penicillin 100 UI/mL and Streptomycin 100 μg/mL. Cells were cultured at 37° C. under a 5% CO2 atmosphere. Cells were treated with increasing concentrations of urolithin A (10 μM, 20 μM and […]). Treatment was performed for eight hours, after which cells were lysed and prepared for Western Blot analysis. Protein expression levels were examined for autophagy related proteins LC3-I and II (Cell Signaling antibody #4108), p62 (Cell Signalling antibody #5114), AMPKα (Cell Signaling antibody #2603), and p-AMPKα(Cell Signaling antibody #2531). The housekeeping protein, HSP90 (BD Transduction Laboratories antibody #610418) level was measured as a loading control.

[3] = tested on: human primary skeletal muscle cells; assay: Autophagy western blot in human primary myoblasts; format: cell-based; settings: 10 μM, 20 μM, and 50 μM, 16 hours
Protocol: Human primary skeletal myocytes were cultured in vitro and exposed to increasing concentrations of urolithin A, including 10 μM, 20 μM, and 50 μM for 16 hours. Human skeletal myoblasts were grown in DMEM plus 2% horse serum. Control cells were treated with DMSO at an equivalent final concentration for the same period and served as the untreated control.
At the end of treatment, cells were lysed with RIPA buffer and applied to SDS-PAGE and analyzed by western blot. Protein expression levels were examined for autophagy-related proteins LC3-I and LC3-II (Cell Signaling antibody #4108), p62 (Cell Signaling antibody #5114), AMPKα (Cell Signaling antibody #2603), and p-AMPKα(Cell Signaling antibody #2531). The housekeeping protein, R-actin (Cell Signaling Antibody #4967) level was measured as a loading control.

aged C57BL/6J mice = assay: Grip test in aged mice; format: in vivo, mouse; settings: high fat diet, 50 mg/kg/day, 26 weeks, FIG. 22
Protocol: To examine the effects of urolithin A treatment on muscle function in aged mammals, 17-month-old C57BL/6J mice were treated with either a high fat rodent diet or a high fat rodent diet containing urolithin A mixed with food to reach a dosing of 50 mg/kg/day delivered to the mice.
Following 26 weeks of treatment with urolithin A, mice were assessed for their neuromuscular function by means of a grip test. Using the grip test, one can measure the forelimb grip strength of mice. Mice were placed on a grid to enable their fore paws grasp the support. To measure the grip strength, mice are pulled backward in the sensor axis until they are no longer able to hold the grid.

Compound: O=c1oc2cc(O)ccc2c2ccc(O)cc12 [Urolithin A, urolithin A]
- Median lifespan ([1]; sir-2.1(ok434), 50 μM UA): 23 days
- Lifespan extension compared to control (%) ([1]; sir-2.1(ok434), 50 μM UA vs 1% DMSO): +9.5%
- activity of urolithin A on the extension of median lifespan ([1]; sir-2.1 mutant): completely suppressed
- lifespan extension by urolithin A under bec-1 RNAi [2]: suppressed; also recorded: totally suppress the lifespan phenotype
- levels of p62 (ModeK cells): decreased
- ratio of LC3-II/LC3-I vs vehicle-treated cells (ModeK cells; FIG. 14): ≤ 10 fold
- levels of p62 [3]: decrease
- ratio of pAMPKα/AMPKα [3]: increasing several fold
- ratio of LC3-II to LC3-I ([3]; FIG. 17): dose-dependent increase
- forelimb grip strength (aged C57BL/6J mice): greater grip strength
